Values quoted from earlier work in patent CN101647784A, “卡马西平缓释片及其制备方法” (Beijing Kexin Bicheng Medicine Technology Development Co Ltd, priority 2008, dated 2010).

Details: early epilepsy and single seizures; 406 subjects, immediate versus deferred treatment

NC(=O)N1c2ccccc2C=Cc2ccccc21 [卡马西平]
显著影响: effect on time to 1-year remission | effect on time to 2-year remission | effect on time to first seizure
